Data: BindingDB's records for doi:10.1016/j.bmcl.2005.02.039 (National Institute of Pharmaceutical Education and Research …, 2005)

Assay: Anti-oxidant activity in DPPH radicak scavenging assay; n=3-4

| Structure (SMILES) | IC50 |
| --- | --- |
| Oc1ccc(/C=C/c2cc(/C=C/c3ccc(O)cc3)[nH]n2)cc1 [4-((E)-2-{3-[(E)-2-(4-hydroxyphenyl)vinyl]-1H-pyrazol-5-yl}vinyl)phenol] | 32.4 µM |
| COc1cc(C=Cc2cc(C=Cc3ccc(O)cc3)n[nH]2)ccc1O [4-((E)-2-{5-[(E)-2-(4-Hydroxy-phenyl)-vinyl]-1H-pyrazol-3-yl}-vinyl)-2-methoxy-phenol] | 15.5 µM |
| COc1cc(/C=C/c2cc(/C=C/c3ccc(O)cc3)on2)ccc1O [4-((E)-2-{5-[(E)-2-(4-Hydroxy-phenyl)-vinyl]-isoxazol-3-yl}-vinyl)-2-methoxy-phenol] | 19 µM |
